Assay results published in ChEMBL document CHEMBL4387741, “Optimization of novel reversible Bruton's tyrosine kinase inhibitors identified using Tethering-fragment-based screens” (Bioorg Med Chem, 2019).
≈ marks a conversion by molar mass, not a printed value.

How the values were obtained:
[1] = biological target: Bone morphogenetic protein receptor type-1B (Homo sapiens) (UniProt O00238); test: Inhibition of wild-type human partial length BMPR1B (D178 to L502 residues) expressed in mammalian expression system at 1 uM by Kinomescan method relative to control
Chain of Bone morphogenetic protein receptor type-1B (Homo sapiens) (O00238 whole entry, the tested form may be a part, canonical isoform): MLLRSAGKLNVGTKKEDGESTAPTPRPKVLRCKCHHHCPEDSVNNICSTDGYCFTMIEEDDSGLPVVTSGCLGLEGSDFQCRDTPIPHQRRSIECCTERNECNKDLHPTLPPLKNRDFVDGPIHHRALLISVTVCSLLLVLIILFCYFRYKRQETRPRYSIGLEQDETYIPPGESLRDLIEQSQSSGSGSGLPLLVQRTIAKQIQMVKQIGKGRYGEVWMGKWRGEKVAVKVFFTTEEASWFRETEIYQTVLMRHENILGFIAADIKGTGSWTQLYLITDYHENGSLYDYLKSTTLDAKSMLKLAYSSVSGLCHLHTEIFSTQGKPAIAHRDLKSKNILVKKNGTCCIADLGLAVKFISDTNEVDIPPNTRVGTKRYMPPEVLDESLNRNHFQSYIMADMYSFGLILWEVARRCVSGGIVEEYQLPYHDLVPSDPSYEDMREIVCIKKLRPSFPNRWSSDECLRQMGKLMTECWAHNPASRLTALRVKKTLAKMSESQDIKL

[2] = biological target: Casein kinase I isoform alpha (Homo sapiens) (UniProt P48729); test: Inhibition of wild-type human partial length CSNK1A1 (M1 to L450 residues) expressed in mammalian expression system at 1 uM by Kinomescan method relative to control
Chain of Casein kinase I isoform alpha (Homo sapiens) (P48729 2-337 limits assumed): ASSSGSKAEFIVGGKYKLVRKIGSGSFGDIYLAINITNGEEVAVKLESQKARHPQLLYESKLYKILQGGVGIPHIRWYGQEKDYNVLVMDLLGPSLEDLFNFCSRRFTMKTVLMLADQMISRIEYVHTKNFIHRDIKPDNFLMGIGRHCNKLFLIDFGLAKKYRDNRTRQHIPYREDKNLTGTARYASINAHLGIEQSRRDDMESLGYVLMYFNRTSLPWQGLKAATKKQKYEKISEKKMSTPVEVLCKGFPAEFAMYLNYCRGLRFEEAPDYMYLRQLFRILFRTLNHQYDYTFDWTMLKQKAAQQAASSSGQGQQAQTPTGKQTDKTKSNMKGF

[3] = biological target: Death-associated protein kinase 2 (Homo sapiens) (UniProt Q9UIK4); test: Inhibition of wild-type human full length DAPK2 (M1 to S370 residues) expressed in bacterial expression system at 1 uM by Kinomescan method relative to control
[4] = system: Receptor-type tyrosine-protein kinase FLT3 (Homo sapiens), P36888 [N841I]; test: Inhibition of human partial length FLT3 N841I mutant (V592 to Y969 residues) expressed in bacterial expression system at 1 uM by Kinomescan method relative to control
[5] = biological target: Insulin receptor (Homo sapiens) (UniProt P06213); test: Inhibition of wild-type human partial length INSR (P997 to E1318 residues) expressed in mammalian expression system at 1 uM by Kinomescan method relative to control
[6] = biological target: Mitogen-activated protein kinase kinase kinase kinase 5 (Homo sapiens) (UniProt Q9Y4K4); test: Inhibition of wild-type human partial length MAP4K5 (M1 to P297 residues) expressed in bacterial expression system at 1 uM by Kinomescan method relative to control
[7] = biological target: Platelet-derived growth factor receptor beta (Homo sapiens) (UniProt P09619); test: Inhibition of wild-type human partial length PDGFRB (V582 to Y1009 residues) expressed in bacterial expression system at 1 uM by Kinomescan method relative to control
[8] = biological target: 3-phosphoinositide-dependent protein kinase 1 (Homo sapiens) (UniProt O15530); test: Inhibition of wild-type human full length PDPK1 (M1 to Q556 residues) expressed in bacterial expression system at 1 uM by Kinomescan method relative to control
Chain of 3-phosphoinositide-dependent protein kinase 1 (Homo sapiens) (O15530 whole entry, the tested form may be a part): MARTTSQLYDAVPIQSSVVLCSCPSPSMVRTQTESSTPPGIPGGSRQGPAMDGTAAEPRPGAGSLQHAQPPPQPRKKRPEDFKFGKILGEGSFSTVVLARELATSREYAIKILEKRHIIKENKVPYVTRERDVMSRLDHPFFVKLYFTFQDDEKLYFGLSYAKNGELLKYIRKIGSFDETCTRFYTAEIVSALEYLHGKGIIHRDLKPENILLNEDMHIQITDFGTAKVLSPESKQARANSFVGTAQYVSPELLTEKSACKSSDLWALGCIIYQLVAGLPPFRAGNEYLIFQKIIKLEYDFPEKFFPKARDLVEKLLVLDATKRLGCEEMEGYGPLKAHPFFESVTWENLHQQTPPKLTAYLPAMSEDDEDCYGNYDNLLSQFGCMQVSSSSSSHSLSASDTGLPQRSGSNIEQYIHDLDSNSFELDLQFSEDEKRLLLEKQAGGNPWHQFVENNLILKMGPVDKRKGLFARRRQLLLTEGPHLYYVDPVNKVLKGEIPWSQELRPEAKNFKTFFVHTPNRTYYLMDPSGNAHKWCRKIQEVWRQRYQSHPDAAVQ

[9] = biological target: Serine/threonine-protein kinase 16 (Homo sapiens) (UniProt O75716); test: Inhibition of wild-type human partial length STK16 (G11 to I305 residues) expressed in bacterial expression system at 1 uM by Kinomescan method relative to control
[10] = biological target: Tyrosine-protein kinase SYK (Homo sapiens) (UniProt P43405); test: Inhibition of wild-type human partial length SYK (D354 to N635 residues) expressed in bacterial expression system at 1 uM by Kinomescan method relative to control
[11] = biological target: Serine/threonine-protein kinase ULK2 (Homo sapiens) (UniProt Q8IYT8); test: Inhibition of wild-type human partial length ULK2 (M1 to S301 residues) expressed in mammalian expression system at 1 uM by Kinomescan method relative to control
[12] = biological target: Wee1-like protein kinase 2 (Homo sapiens) (UniProt P0C1S8); test: Inhibition of wild-type human partial length WEE2 (M204 to K492 residues) expressed in bacterial expression system at 1 uM by Kinomescan method relative to control
Chain of Wee1-like protein kinase 2 (Homo sapiens) (P0C1S8 whole entry, looked up, the tested form may be a part): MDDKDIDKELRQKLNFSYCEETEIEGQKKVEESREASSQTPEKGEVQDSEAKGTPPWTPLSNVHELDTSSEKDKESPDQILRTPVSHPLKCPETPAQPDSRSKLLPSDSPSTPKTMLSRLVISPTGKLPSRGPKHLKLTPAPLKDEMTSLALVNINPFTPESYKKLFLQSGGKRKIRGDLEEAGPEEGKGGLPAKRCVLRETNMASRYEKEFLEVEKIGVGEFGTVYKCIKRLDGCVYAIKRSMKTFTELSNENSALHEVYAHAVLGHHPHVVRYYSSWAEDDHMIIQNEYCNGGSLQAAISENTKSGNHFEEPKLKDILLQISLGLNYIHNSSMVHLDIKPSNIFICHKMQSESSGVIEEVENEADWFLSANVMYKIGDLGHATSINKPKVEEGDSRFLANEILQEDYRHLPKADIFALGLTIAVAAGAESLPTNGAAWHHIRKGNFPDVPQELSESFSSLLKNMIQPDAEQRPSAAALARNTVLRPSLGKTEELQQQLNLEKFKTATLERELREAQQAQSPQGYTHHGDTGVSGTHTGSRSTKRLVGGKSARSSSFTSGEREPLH

[13] = Kinetic solubility of the compound at pH 1.5 by shake flask assay; format: physicochemical; details: buffer, read-out: Kinetic_solubility
[14] = biological target: Atypical kinase COQ8A, mitochondrial (Homo sapiens) (UniProt Q8NI60); test: Inhibition of wild-type human […] ADCK3 (M280 to Q647 residues) expressed in bacterial expression system at 10 uM by Kinomescan method relative to control
[15] = biological target: ALK tyrosine kinase receptor (Homo sapiens) (UniProt Q9UM73); test: Inhibition of wild-type human partial length ALK (I1088 to E1409 residues) expressed in mammalian expression system at 10 uM by Kinomescan method relative to control
[16] = system: ALK tyrosine kinase receptor (Homo sapiens), Q9UM73 [L1196M]; test: Inhibition of wild-type human partial length ALK L1196M mutant (I1088 to E1409 residues) expressed in mammalian expression system at 10 uM by Kinomescan method relative to control
[17] = biological target: Mitogen-activated protein kinase kinase kinase 5 (Homo sapiens) (UniProt Q99683); test: Inhibition of wild-type human partial length ASK1 (E648 to S964 residues) expressed in bacterial expression system at 10 uM by Kinomescan method relative to control
Chain of Mitogen-activated protein kinase kinase kinase 5 (Homo sapiens) (Q99683 whole entry, the tested form may be a part): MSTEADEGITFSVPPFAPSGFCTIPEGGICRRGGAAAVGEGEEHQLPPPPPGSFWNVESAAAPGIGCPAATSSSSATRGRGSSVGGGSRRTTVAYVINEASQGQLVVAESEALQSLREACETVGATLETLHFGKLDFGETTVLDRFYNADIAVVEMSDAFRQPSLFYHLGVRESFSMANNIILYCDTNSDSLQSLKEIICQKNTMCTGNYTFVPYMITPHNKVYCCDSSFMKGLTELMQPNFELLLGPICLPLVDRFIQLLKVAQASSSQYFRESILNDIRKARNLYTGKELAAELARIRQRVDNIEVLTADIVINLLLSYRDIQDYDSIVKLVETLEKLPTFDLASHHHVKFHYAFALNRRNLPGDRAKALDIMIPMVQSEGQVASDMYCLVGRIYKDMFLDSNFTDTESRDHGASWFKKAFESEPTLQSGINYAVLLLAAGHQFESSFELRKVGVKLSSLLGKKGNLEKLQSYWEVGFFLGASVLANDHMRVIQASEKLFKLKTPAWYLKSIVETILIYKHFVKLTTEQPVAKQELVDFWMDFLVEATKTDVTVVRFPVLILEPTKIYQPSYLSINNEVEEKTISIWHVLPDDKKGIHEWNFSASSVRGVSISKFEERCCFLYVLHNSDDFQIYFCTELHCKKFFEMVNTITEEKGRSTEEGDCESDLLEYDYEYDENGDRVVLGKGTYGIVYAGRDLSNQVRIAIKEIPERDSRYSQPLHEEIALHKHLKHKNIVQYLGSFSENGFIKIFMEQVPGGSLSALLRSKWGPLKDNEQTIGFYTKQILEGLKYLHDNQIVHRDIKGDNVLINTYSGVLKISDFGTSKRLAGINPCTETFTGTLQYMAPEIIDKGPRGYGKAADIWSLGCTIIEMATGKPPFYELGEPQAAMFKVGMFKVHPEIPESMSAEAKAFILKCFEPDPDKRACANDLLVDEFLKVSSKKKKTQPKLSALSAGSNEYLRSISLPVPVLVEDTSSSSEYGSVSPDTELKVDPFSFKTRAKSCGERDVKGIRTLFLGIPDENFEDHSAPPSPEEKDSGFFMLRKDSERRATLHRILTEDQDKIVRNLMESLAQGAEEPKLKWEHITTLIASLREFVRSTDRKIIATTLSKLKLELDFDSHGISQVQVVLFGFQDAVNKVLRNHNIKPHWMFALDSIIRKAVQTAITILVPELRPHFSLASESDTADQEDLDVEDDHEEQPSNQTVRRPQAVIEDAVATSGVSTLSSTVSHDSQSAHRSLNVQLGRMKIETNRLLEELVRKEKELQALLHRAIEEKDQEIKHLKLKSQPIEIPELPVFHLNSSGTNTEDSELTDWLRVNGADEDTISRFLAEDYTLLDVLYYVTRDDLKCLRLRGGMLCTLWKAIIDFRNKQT

[18] = biological target: Calcium/calmodulin-dependent protein kinase type II subunit delta (Homo sapiens) (UniProt Q13557); test: Inhibition of wild-type human partial length CAMK2D (M1 to E329 residues) expressed in bacterial expression system at 10 uM by Kinomescan method relative to control
[19] = biological target: Ephrin type-B receptor 6 (Homo sapiens) (UniProt O15197); test: Inhibition of wild-type human partial length EPHB6 (Q634 to P948 residues) expressed in mammalian expression system at 10 uM by Kinomescan method relative to control
[20] = biological target: Mitogen-activated protein kinase 7 (Homo sapiens) (UniProt Q13164); test: Inhibition of wild-type human partial length ERK5 (M1 to A409 residues) expressed in bacterial expression system at 10 uM by Kinomescan method relative to control
[21] = biological target: Tyrosine-protein kinase Fes/Fps (Homo sapiens) (UniProt P07332); test: Inhibition of wild-type human partial length FES (I527 to R822 residues) expressed in bacterial expression system at 10 uM by Kinomescan method relative to control
Chain of Tyrosine-protein kinase Fes/Fps (Homo sapiens) (P07332 whole entry, the tested form may be a part): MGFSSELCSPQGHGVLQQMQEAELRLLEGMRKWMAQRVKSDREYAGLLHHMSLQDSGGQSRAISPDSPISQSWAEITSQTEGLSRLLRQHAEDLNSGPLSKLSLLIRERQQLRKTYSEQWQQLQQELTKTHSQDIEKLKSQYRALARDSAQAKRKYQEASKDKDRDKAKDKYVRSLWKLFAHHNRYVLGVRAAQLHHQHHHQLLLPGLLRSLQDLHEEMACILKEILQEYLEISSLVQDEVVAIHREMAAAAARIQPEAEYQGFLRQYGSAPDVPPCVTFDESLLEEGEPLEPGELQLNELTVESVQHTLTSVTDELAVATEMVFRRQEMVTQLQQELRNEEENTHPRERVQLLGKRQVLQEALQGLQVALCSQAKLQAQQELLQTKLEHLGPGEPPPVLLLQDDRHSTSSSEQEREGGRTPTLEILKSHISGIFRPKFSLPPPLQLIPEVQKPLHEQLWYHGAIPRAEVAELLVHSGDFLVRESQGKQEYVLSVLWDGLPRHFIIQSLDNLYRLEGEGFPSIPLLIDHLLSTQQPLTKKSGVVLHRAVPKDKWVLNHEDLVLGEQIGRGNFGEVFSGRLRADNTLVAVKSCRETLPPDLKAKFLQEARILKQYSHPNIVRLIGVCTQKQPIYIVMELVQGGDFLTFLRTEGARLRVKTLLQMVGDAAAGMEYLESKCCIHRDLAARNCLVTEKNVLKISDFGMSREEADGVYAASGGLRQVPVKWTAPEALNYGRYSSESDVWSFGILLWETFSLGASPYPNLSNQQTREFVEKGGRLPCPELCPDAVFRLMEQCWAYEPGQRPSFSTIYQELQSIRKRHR

[22] = biological target: Mitogen-activated protein kinase kinase kinase 4 (Homo sapiens) (UniProt Q9Y6R4); test: Inhibition of wild-type human partial length MAP3K4 (G1319 to E1608 residues) expressed in bacterial expression system at 10 uM by Kinomescan method relative to control
[23] = biological target: Phosphorylase b kinase gamma catalytic chain, skeletal muscle/heart isoform (Homo sapiens) (UniProt Q16816); test: Inhibition of wild-type human full length PHKG1 (M1 to Y387 residues) expressed in bacterial expression system at 10 uM by Kinomescan method relative to control
[24] = biological target: Phosphatidylinositol 4-kinase beta (Homo sapiens) (UniProt Q9UBF8); test: Inhibition of wild-type human full length PIK4CB (M1 to M828 residues) expressed in mammalian expression system at 10 uM by Kinomescan method relative to control
[25] = biological target: SRSF protein kinase 2 (Homo sapiens) (UniProt P78362); test: Inhibition of wild-type human full length SRPK2 (M1 to S686 residues) expressed in bacterial expression system at 10 uM by Kinomescan method relative to control
Chain of SRSF protein kinase 2 (Homo sapiens) (P78362 whole entry, looked up, the tested form may be a part): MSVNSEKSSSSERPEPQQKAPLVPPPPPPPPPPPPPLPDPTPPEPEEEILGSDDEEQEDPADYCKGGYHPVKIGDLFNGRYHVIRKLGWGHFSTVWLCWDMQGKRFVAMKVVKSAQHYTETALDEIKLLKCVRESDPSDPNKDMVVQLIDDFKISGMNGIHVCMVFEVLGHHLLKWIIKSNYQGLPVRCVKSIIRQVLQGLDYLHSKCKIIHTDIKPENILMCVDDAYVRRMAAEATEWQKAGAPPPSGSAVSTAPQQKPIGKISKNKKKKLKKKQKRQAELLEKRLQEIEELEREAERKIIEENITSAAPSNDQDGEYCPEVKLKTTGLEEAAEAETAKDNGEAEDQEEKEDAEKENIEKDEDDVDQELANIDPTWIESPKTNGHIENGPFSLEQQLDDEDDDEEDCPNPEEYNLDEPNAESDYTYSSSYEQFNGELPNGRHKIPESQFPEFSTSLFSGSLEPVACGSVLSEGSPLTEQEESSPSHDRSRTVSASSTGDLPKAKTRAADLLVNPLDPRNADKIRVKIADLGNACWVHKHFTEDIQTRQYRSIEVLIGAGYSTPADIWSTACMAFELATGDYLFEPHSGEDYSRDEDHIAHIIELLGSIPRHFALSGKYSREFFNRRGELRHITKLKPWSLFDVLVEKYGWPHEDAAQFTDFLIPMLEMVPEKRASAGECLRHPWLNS

[26] = biological target: Tyrosine-protein kinase Tec (Homo sapiens) (UniProt P42680); test: Inhibition of wild-type human partial length TEC (L341 to D620 residues) expressed in bacterial expression system at 10 uM by Kinomescan method relative to control
[27] = biological target: Dual specificity testis-specific protein kinase 1 (Homo sapiens) (UniProt Q15569); test: Inhibition of wild-type human full length TESK1 (R37 to S626 residues) expressed in bacterial expression system at 10 uM by Kinomescan method relative to control

## O=C(Nc1cccc([C@@H]2CN(c3ncnc4[nH]ccc34)CCN2CCO)c1)Nc1c(F)cccc1N1CCCC1
[1]
  inhibition: 63%
[2]
  inhibition: 81%
[3]
  inhibition: 6.1%
[4]
  inhibition: 28%
[5]
  inhibition: 100%
[6]
  inhibition: 91%
[7]
  inhibition: 42%
[8]
  inhibition: 34%
[9]
  inhibition: 82%
[10]
  inhibition: 97%
[11]
  inhibition: 39%
[12]
  inhibition: 93%
[13]
  solubility kinetic: 94 µg/mL (≈ 173 µM)

## O=C(Nc1cccc([C@H]2CCCN(c3ncnc4[nH]ccc34)C2)c1)Nc1ccccc1N1CCCC1
[14]
  inhibition: 100%
[15]
  inhibition: 80%
[16]
  inhibition: 63%
[17]
  inhibition: 100%
[18]
  inhibition: 100%
[19]
  inhibition: 8.6%
[20]
  inhibition: 100%
[21]
  inhibition: 99%
[22]
  inhibition: 87%
[23]
  inhibition: 91%
[24]
  inhibition: 89%
[25]
  inhibition: 53%
[26]
  inhibition: 73%
[27]
  inhibition: 100%
